From the NIST ThermoML archive (doi:10.1007/s10765-010-0768-y)

Assay: xn = mol fraction of the nth substance listed
Conditions: 101 kPa, Liquid, Pycnometric method

C=CC(=O)OCCCC [butyl 2-propenoate] + Cc1ccc(C)cc1
mass density [kg/m3]
Conditions | 288.15 K | 293.15 K | 298.15 K | 303.15 K | 308.15 K | 313.15 K | 318.15 K
x1 = 0.0712 | 868.91 | 864.5 | 860.09 | 855.68 | 851.28 | 846.88 | 842.48
x1 = 0.1429 | 872.25 | 867.79 | 863.33 | 858.87 | 854.42 | 849.97 | 845.52
x1 = 0.213 | 875.39 | 870.89 | 866.39 | 861.89 | 857.39 | 852.9 | 848.41
x1 = 0.2833 | 878.45 | 873.91 | 869.37 | 864.84 | 860.31 | 855.78 | 851.25
x1 = 0.3623 | 881.76 | 877.19 | 872.62 | 868.05 | 863.48 | 858.91 | 854.34
x1 = 0.4313 | 884.56 | 879.95 | 875.34 | 870.74 | 866.14 | 861.54 | 856.94
x1 = 0.5088 | 887.58 | 882.94 | 878.3 | 873.66 | 869.03 | 864.4 | 859.77
x1 = 0.5829 | 890.35 | 885.68 | 881.01 | 876.34 | 871.68 | 867.02 | 862.36
x1 = 0.6542 | 892.91 | 888.21 | 883.51 | 878.82 | 874.13 | 869.44 | 864.75
x1 = 0.7216 | 895.22 | 890.5 | 885.78 | 881.06 | 876.35 | 871.64 | 866.93
x1 = 0.7922 | 897.54 | 892.8 | 888.06 | 883.32 | 878.58 | 873.85 | 869.12
x1 = 0.8586 | 899.61 | 894.85 | 890.09 | 885.33 | 880.58 | 875.83 | 871.08
x1 = 0.9294 | 901.67 | 896.91 | 892.15 | 887.39 | 882.63 | 877.88 | 873.13
x1 = 1 | 903.6 | 898.85 | 894.1 | 889.35 | 884.6 | 879.85 | 875.1
